“And” between values parts separate entries of the source, which are not always exact repeats. Equal entries are not always repeated.

For the first experiment, the target named is T1, L-type calcium channel (LTCC) (Rattus norvegicus, UniProt P22002).
T1 construct: The 6.5 kb cDNA encoding the L-type calcium channel α1c subunit was cloned by PCR amplification from rat heart cDNA; expressed in transfected cells; host or cells: HEK293 (ATCC), stably transfected
T1 sequence (P22002 whole entry): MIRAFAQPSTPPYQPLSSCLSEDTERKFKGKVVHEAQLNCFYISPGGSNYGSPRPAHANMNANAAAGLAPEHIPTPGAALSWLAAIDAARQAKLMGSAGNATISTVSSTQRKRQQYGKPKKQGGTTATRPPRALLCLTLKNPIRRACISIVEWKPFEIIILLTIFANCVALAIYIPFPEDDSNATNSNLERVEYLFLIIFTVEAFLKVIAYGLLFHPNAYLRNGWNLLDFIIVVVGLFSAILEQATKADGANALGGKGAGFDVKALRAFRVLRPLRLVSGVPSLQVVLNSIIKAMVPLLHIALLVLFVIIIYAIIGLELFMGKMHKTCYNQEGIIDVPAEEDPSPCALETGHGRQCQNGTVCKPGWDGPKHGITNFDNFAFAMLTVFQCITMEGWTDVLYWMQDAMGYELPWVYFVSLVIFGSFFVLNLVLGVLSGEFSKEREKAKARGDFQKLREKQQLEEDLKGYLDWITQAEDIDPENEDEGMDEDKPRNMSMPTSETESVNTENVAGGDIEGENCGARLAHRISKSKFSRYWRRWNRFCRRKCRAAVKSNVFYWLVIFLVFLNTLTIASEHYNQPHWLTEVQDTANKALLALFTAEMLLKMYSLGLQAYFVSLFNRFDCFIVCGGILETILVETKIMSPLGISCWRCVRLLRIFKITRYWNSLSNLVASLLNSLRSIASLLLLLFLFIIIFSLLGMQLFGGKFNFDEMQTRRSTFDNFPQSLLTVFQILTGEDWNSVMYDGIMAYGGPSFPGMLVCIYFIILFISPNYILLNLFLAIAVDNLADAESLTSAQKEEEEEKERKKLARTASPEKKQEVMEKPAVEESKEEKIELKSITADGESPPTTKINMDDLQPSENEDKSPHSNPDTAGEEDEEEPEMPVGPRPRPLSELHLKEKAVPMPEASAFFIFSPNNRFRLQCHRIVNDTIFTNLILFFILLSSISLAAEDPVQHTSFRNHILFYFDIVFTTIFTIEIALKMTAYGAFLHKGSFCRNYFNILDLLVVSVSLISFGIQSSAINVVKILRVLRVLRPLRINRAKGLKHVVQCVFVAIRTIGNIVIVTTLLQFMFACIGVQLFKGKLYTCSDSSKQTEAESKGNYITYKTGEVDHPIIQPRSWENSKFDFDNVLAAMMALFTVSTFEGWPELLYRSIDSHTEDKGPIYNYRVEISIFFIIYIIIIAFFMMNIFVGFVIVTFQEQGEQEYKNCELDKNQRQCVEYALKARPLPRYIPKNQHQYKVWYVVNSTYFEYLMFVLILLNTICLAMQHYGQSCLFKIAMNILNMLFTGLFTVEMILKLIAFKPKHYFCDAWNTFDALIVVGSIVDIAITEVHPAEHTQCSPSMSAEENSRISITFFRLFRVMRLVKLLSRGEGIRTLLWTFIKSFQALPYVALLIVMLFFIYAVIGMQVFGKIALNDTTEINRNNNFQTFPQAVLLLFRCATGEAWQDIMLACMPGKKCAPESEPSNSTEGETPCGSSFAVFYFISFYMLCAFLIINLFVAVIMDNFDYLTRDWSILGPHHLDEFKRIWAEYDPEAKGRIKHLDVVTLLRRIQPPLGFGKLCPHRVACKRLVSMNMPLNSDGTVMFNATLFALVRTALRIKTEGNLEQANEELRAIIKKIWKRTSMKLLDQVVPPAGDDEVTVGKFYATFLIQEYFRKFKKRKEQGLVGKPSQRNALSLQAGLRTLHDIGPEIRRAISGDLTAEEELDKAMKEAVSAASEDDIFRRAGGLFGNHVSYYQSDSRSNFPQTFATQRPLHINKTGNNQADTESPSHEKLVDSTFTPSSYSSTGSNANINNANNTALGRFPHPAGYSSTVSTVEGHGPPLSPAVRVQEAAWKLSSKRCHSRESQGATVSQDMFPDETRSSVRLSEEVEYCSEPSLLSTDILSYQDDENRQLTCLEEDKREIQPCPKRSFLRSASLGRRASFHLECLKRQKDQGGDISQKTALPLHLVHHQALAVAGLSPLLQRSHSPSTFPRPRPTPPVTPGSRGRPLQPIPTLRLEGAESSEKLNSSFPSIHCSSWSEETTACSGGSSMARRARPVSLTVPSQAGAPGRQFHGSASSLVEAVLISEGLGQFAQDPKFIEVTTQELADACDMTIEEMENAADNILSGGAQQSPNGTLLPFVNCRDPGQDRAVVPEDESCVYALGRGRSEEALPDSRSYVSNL
T1 sequence (P54290 25-944 partner limits assumed): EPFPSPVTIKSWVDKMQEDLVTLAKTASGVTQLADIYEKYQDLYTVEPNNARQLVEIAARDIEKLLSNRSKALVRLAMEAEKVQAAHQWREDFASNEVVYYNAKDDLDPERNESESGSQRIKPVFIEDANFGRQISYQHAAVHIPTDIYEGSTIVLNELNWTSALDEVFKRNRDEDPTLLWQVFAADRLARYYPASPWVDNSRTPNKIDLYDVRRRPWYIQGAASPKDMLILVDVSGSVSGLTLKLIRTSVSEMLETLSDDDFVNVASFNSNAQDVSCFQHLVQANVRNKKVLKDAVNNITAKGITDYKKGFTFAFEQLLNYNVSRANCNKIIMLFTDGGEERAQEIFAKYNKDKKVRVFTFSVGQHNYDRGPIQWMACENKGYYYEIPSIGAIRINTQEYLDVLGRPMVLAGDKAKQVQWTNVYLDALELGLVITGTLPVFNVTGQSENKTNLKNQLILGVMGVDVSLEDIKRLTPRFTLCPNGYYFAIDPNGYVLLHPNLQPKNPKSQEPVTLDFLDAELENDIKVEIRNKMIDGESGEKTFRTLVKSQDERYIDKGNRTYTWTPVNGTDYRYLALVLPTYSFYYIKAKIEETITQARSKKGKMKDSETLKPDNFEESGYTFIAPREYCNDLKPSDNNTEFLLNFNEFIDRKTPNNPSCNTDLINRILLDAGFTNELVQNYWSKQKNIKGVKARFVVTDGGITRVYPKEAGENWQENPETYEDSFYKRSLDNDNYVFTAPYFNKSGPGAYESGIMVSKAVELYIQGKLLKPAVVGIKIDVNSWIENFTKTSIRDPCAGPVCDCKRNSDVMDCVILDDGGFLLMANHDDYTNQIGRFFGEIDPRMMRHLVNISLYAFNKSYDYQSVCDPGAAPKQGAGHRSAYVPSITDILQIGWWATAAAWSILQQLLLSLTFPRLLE
T1 sequence (P54290 945-1091 partner limits assumed): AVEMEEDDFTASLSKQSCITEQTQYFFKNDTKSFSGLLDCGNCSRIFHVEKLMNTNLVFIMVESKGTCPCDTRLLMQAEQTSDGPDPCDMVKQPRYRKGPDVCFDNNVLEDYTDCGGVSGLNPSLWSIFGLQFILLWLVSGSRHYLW
T1 sequence (P54283 whole entry partner): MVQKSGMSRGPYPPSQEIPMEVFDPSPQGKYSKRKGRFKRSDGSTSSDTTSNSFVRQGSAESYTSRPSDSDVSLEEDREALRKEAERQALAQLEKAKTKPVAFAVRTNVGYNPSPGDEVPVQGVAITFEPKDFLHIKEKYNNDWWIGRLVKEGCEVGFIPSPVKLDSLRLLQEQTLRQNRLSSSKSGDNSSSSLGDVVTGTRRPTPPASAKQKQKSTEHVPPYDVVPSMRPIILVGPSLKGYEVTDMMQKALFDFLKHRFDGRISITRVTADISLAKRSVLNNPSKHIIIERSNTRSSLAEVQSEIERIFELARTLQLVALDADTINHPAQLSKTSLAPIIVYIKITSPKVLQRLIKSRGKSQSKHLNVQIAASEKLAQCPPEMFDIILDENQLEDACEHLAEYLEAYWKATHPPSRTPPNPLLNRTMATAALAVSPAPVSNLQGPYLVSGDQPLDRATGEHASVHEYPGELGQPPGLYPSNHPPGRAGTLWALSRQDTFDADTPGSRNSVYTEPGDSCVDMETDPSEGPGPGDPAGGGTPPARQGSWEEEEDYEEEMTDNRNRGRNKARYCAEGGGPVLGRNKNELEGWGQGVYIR
Put plainly: FLIPR calcium mobilization assay for L-type calcium channel (HEK293 cells expressing recombinant rat LTCC subunits, or alternatively differentiated A7r5 cells). The class given is cell-based. To be noted: calcium mobilization in vitro assay; L-type calcium channel block. The method, then:
A7r5 (ATCC) cells were maintained and routinely cultured in A7r5 growth medium consisting of Dulbecco's Modified Eagles Medium containing 10% FBS, 100 U/mL penicillin, 100 μg/mL streptomycin, 4 mM L-glutamine, and 0.15% sodium bicarbonate. 80-90% confluent flasks of cells were differentiated using the following differentiation medium: A7r5 Growth Medium plus 1 mM dibutyryl cyclic AMP (Sigma). Cells were differentiated for 8 days by replacing differentiation medium every 2-3 days.
FLIPR Calcium Mobilization Assay for L-type Calcium Channel. One day prior to performing this assay, HEK293 cells stably expressing recombinant rat L-type calcium channel (LTCC) subunits (α1c, α2δ, and β1) are trypsinized, then seeded on poly-D-lysine-coated 96-well clear-bottom black plates (Becton Dickinson, Franklin Lakes, N.J.) at 75,000 cells/well. On the day of the assay, the plates are washed with LTCC wash buffer (127 mM NaCl, 2 mM MgCl2, 700 μM NaH2PO4, 5 mM CaCl2, 5 mM NaHCO3, 8 mM HEPES, 10 mM glucose, pH 7.4), then loaded with 0.1 mL of LTCC wash buffer containing Fluo-4 (3 μM final concentration, Molecular Probes, Eugene, Oreg.). After 1 hour, the cells are washed with 0.1 mL LTCC wash buffer and resuspended in 0.05 mL LTCC assay buffer (same composition as LTCC wash buffer). Plates are then transferred to a FLIPR^96 for assay. The FLIPR measures basal Fluo-4 fluorescence for 15 seconds, then adds 0.05 mL of each compound tested diluted in LTCC assay buffer at final concentrations ranging from about 846 pM to about 17 μM. Fluo-4 fluorescence is then measured for 5 minutes. 0.1 mL KCl agonist dissolved in LTCC assay buffer is then added to the cells to produce a final concentration of 90 mM KCl, and fluorescence is measured for another 45 seconds. Data are collected over the entire time course and analyzed using Excel, Graph Pad Prism, or an in-house regression analysis software.
Alternative FLIPR Calcium Mobilization Assay for L-type Calcium Channel. Alternatively, the following cell line and procedure was used for the FLIPR calcium mobilization assay for L-type calcium channel. One day prior to performing this assay, differentiated A7r5 cells were trypsinized, then seeded on tissue culture treated 96-well clear-bottom black plates (Becton Dickinson, Franklin Lakes, N.J.) at a dilution of 1:1 from a confluent T150 cm^2 flask. On the day of the assay, the plates were washed with A7r5 wash buffer (127 mM NaCl, 2 mM MgCl2, 700 μM NaH2PO4, 5 mM CaCl2, 5 mM NaHCO3, 8 mM HEPES, 10 mM glucose, pH 7.4), then loaded with 0.1 mL of A7r5 wash buffer containing Fluo-4 (3 μM final concentration, Molecular Probes, Eugene, Oreg.). After 1 hour, the cells were washed with 0.1 mL A7r5 wash buffer and resuspended in 0.05 mL A7r5 assay buffer that was composed of A7r5 wash buffer plus 50 μM valinomycin (Sigma). Plates were then transferred to a FLIPR^96 for assay. The FLIPR measured basal Fluo-4 fluorescence for 15 seconds, then added 0.05 mL of each compound tested diluted in A7r5 assay buffer at final concentrations ranging from about 846 pM to about 17 μM. Fluo-4 fluorescence was then measured for 5 minutes. 0.1 mL KCl agonist dissolved in A7r5 assay buffer is then added to the cells to produce a final concentration of 90 mM KCl, and fluorescence was measured for another 45 seconds. Data were collected over the entire time course and analyzed using Excel, Graph Pad Prism, or an in-house regression analysis software.
For orientation: Calcium flux is commonly read through the fluorescence of an indicator in the cells.
As a reminder, the IC50 is the concentration that inhibits the measured activity by half. Take `COc1ccc(C(=O)N2CCC3(C=Cc4ccccc43)CC2)cc1C(F)(F)F` [1-(3-trifluoromethyl-4-methoxybenzoyl)-spiro[piperidine-4,1′-indene]]: the IC50 came out at 5.74 µM.
Take `C1=CC2(CCN(CCC=C3c4ccccc4CCc4ccccc43)CC2)c2cccnc21` [1-[2-(10,11-dihydro-5H-dibenzo[a,d]cyclohepten-5-ylmethenyl)ethyl]-spiro[piperidine-4,5′-cyclopenta[b]pyridine]]: the IC50 was determined as 3.78 µM.
As for `O=C1NC2(CCN(CCCC(c3ccc(F)cc3)c3ccc(F)cc3)CC2)c2ccccc21` [2,3-Dihydro-1′-[4,4-bis(4-fluorophenyl)butyl]-spiro[isoindole-1,4′-piperidine]-3-one], the IC50 is greater than 20 µM.
Still for that read-out and setting: under `O=C1OC2(CCN(CCCC(c3ccc(F)cc3)c3ccc(F)cc3)CC2)c2ccccc21` [Compound 12, 1,3-Dihydro-1′-[4,4-bis(4-fluorophenyl)butyl]-spiro[isobenzofuran-1,4′-piperidine]-3-one] stands 3.95 µM.

In a further experiment the target is N-type calcium channel (NTCC) (Homo sapiens, UniProt Q00975). The experiment in a line: FLIPR calcium mobilization assay for N-type calcium channel (differentiated IMR32 cells). Also noted: endogenous in cells; host or cells: IMR32 cells (ATCC), differentiated 8 days with dibutyryl cAMP and bromodeoxyuridine. The class given is cell-based. To be noted: calcium mobilization in vitro assay; N-type calcium channel block. Here is the method: Cell maintenance and differentiation. Unless noted otherwise, cell culture reagents were purchased from Mediatech of Herndon, Md. IMR32 cells (American Type Culture Collection, ATCC, Manassas, Va.) were routinely cultured in growth medium consisting of minimum essential medium containing 10% fetal bovine serum (FBS, Hyclone, Logan, Utah), 100 U/mL penicillin, 100 μg/mL streptomycin, 2 mM L-glutamine, 1 mM sodium pyruvate, and 1×MEM non-essential amino acids. 80-90% confluent flasks of cells were differentiated using the following differentiation medium: Growth medium plus 1 mM dibutyryl cyclic AMP (Sigma, St. Louis, Mo.), and 2.5 μM bromodeoxyuridine (Sigma). Cells were differentiated for 8 days by replacing differentiation medium every 2-3 days.
FLIPR Calcium Mobilization Assay for N-type Calcium Channel. One day prior to performing this assay, differentiated IMR32 cells were treated with 1×
CellStripper, and seeded on poly-D-lysine-coated 96-well clear-bottom black plates (Becton Dickinson, Franklin Lakes, N.J.) at 200,000 cells/well. On the day of the assay, the cell plates were washed with IMR32 buffer (127 mM NaCl, 1 mM KCl, 2 mM MgCl2, 700 μM NaH2PO4, 5 mM CaCl2, 5 mM NaHCO3, 8 mM HEPES, 10 mM glucose, pH 7.4), then pre-stimulated with KCl and loaded as follows: 0.05 mL of IMR32 buffer, 0.05 mL of each compound tested diluted in IMR32 buffer containing 20 μM nitrendipine (Sigma), and 0.1 mL KCl dissolved in IMR32 buffer, plus Fluo-4 were added (3 μM final concentration, Molecular Probes, Eugene, Oreg.). Final test compound concentrations ranged from about 846 pM to about 17 μM, final nitrendipine concentration was 5 μM, and final KCl concentration was 90 mM. After 1 hour, the cells were washed twice with 0.05 mL of each compound tested in nitrendipine-containing IMR32 buffer (no KCl or Fluo-4), and then replaced with 0.1 mL of each compound tested in nitrendipine-containing IMR32 buffer. Plates were then transferred to a Fluorimetric Imaging Plate Reader (FLIPR^96, Molecular Devices, Inc., Sunnyvale, Calif.) for assay. The FLIPR measured basal Fluo-4 fluorescence for 315 seconds (i.e., 5 minutes and 15 seconds), then added 0.1 mL KCl agonist dissolved in IMR32 buffer and measured fluorescence for another 45 seconds. Final test compound concentrations on the cells after FLIPR read ranged from about 846 pM to about 17 μM, final nitrendipine concentration was 5 μM, and final KCl concentration was 90 mM. Data were collected over the entire time course and analyzed using Excel, Graph Pad Prism (version 3.02, Graph Pad, San Diego, Calif.), or an in-house non-linear regression analysis software.
Turning to `O=C1OC2(CCN(C(=O)CC(c3ccccc3)c3ccccc3)CC2)c2ccccc21` [1,3-dihydro-1′-(3,3-diphenylpropanoyl)-spiro[isobenzofuran-1,4′-piperidine]-3-one], the IC50 came out at 2.66 µM.
The same measure, in the same setting: under `COc1ccc(C(=O)N2CCC3(CC2)OC(=O)c2ccccc23)cc1C(F)(F)F` [1,3-dihydro-1′-(4-methoxy-3-trifluoromethylbenzoyl)-spiro[isobenzofuran-1,4′-piperidine]-3-one] stands 6.94 µM and 10 to 20 µM; under `COc1ccc(C(=O)N2CCC3(CC2)OC(=O)c2ccccc23)cn1` [1,3-dihydro-1′-(6-methoxypyridin-3-ylcarbonyl)-spiro[isobenzofuran-1,4′-piperidine]-3-one], 10 to 20 µM.
Still for that read-out and setting: in the case of `O=C(CCC(=O)N1CCC2(CC1)OC(=O)c1ccccc12)c1ccc(F)cc1` [1,3-dihydro-1′-[4-(4-fluorophenyl)-4-oxobutanoyl]-spiro[isobenzofuran-1,4′-piperidine]-3-one] it was 10 to 20 µM; in that of `CC(C)CC(C(=O)N1CCC2(CC1)OC(=O)c1ccccc12)N(C)C(=O)OC(C)(C)C` (stereo not drawn) [1,3-dihydro-1′-[4-methyl-2-(N-methyl-N-tert-butoxycarbonylamino)pentanoyl]-spiro[isobenzofuran-1,4′-piperidine]-3-one], 10.5 µM; in that of `O=C1OC2(CCN(C(=O)c3ccc(OCC(F)(F)F)nc3)CC2)c2ccccc21` [1,3-dihydro-1′-[6-(2,2,2-trifluoroethoxy)pyridin-3-ylcarbonyl]-spiro[isobenzofuran-1,4′-piperidine]-3-one], 6.47 µM.
Same read-out and setting: under `O=C1OC2(CCN(CCC(=O)N(c3ccc(F)cc3)c3ccc(F)cc3)CC2)c2ccccc21` [1,3-dihydro-1′-{2-[N,N-bis(4-fluorophenyl)aminocarbonyl]ethyl}-spiro[isobenzofuran-1,4′-piperidine]-3-one] stands 1.64 µM; under `COc1ccc(CN(C)C(CC(C)C)C(=O)N2CCC3(CC2)OC(=O)c2ccccc23)cc1` (stereo not drawn) [1,3-dihydro-1′-{4-methyl-2-[N-methyl-N-(4-methoxybenzyl)amino]-pentanoyl}-spiro[isobenzofuran-1,4′-piperidine]-3-one], 4.13 µM; under `O=C(CC(c1ccccc1)c1ccccc1)N1CCC2(C=Cc3ncccc32)CC1` [1-(3,3-diphenylpropanoyl)-spiro[piperidine-4,5′-cyclopenta[b]pyridine]], 3.52 µM.
`COc1ccc(C(=O)N2CCC3(C=Cc4ccccc43)CC2)cc1C(F)(F)F` [1-(3-trifluoromethyl-4-methoxybenzoyl)-spiro[piperidine-4,1′-indene]]: the IC50 stood at 2.29 µM.
The same measure, in the same setting: under `COc1ccc(CN2CCC3(C=Cc4ncccc43)CC2)cc1C(F)(F)F` [1-(4-methoxy-3-trifluoromethylbenzyl)-spiro[piperidine-4,5′-cyclopenta[b]pyridine]] stands 10 to 20 µM; under `O=C(N1CCc2cc(S(=O)(=O)N3CCC4(C=Cc5ncccc54)CC3)ccc2C1)C(F)(F)F` [1-(N-trifluoromethylcarbonyl-1,2,3,4-tetrahydroisoquinolin-6-yl-sulfonyl)-spiro[piperidine-4,5′-cyclopenta[b]pyridine]], 5.61 µM.
For the compound `O=C(c1cc2ccccc2s1)N1CCC2(C=Cc3ncccc32)CC1` [1-(benzo[b]thiophen-2-ylcarbonyl)-spiro[piperidine-4,5′-cyclopenta[b]pyridine]], the half-maximal inhibitory concentration (IC50) was in the range of 10 to 20 µM.
On the same count and under the same terms, in the case of `C1=CC2(CCN(CCC=C3c4ccccc4CCc4ccccc43)CC2)c2cccnc21` [1-[2-(10,11-dihydro-5H-dibenzo[a,d]cyclohepten-5-ylmethenyl)ethyl]-spiro[piperidine-4,5′-cyclopenta[b]pyridine]] it was 0.55 µM.
Take `O=C1NC2(CCN(CCCC(c3ccc(F)cc3)c3ccc(F)cc3)CC2)c2ccccc21` [2,3-Dihydro-1′-[4,4-bis(4-fluorophenyl)butyl]-spiro[isoindole-1,4′-piperidine]-3-one]: the half-maximal inhibitory concentration (IC50) was 0.34 µM.
Turning to `O=C1OC2(CCN(CCCC(c3ccc(F)cc3)c3ccc(F)cc3)CC2)c2ccccc21` [Compound 12, 1,3-Dihydro-1′-[4,4-bis(4-fluorophenyl)butyl]-spiro[isobenzofuran-1,4′-piperidine]-3-one], the IC50 was 0.46 µM.
For the compound `O=C(CC=C(c1ccc(F)cc1)c1ccc(F)cc1)N1CCC2(C=Cc3ccccc32)CC1` [Compound 33, 1-[4,4-bis(4-fluorophenyl)but-3-enoyl]-spiro[piperidine-4,1′-indene]], the IC50 was found to be 5.59 µM.
The same measure, in the same setting: under `O=C(CCC(c1ccc(F)cc1)c1ccc(F)cc1)N1CCC2(C=Cc3ccccc32)CC1` [Compound 34, 1-[4,4-bis(4-fluorophenyl)butanoyl]-spiro[piperidine-4,1′-indene]] stands 10 to 20 µM; under `O=C1OC2(CCN(CC(=O)N(c3ccc(F)cc3)c3ccc(F)cc3)CC2)c2ccccc21` [Compound 71, 1,3-Dihydro-1′-[N,N,-bis(4-fluorophenyl)aminocarbonylmethyl]-spiro[isobenzofuran-1,4′-piperidine]-3-one], 4.89 µM.
The same measure, in the same setting: in the case of `O=C1OC2(CCN(C(=O)CC(=O)N(c3ccc(F)cc3)c3ccc(F)cc3)CC2)c2ccccc21` [Compound 75, 1,3-Dihydro-1′-{2-[N,N,-bis(4-fluorophenyl)aminocarbonyl]ethan-1-oyl}-spiro[isobenzofuran-1,4′-piperidine]-3-one] it was 5.79 µM.
